These results are taken from patent publication US9107415B2, “2-(substituted-phenyl)-cyclopentane-1,3-dione compounds, and derivatives thereof” (Syngenta Limited, priority 2011, dated 2015).

Holding throughout (assay type): in vivo
Test [1] deals with Lolium perenne, perennial ryegrass (LOLPE). Nature of the test: Biological Example 3 glasshouse screen, post-emergence herbicidal activity. The following applies: 360 h, read-out: LOLPE percentage phytotoxicity. How it is done: (§1) Test Method: Seeds of a variety of test species are sown in standard soil in pots. After cultivation for one day (pre-emergence) or after 12 days cultivation (post-emergence) under controlled conditions in a glasshouse (warm climate species at 24/18°C., cool climate species at 20/16°C., both at day/night; 16 hours light; 65% humidity), the plants are sprayed with an aqueous spray solution derived from the formulation of the “technical”(i.e. unformulated) active ingredient dissolved in acetone plus IF50, at a 1:20 ratio of “technical”active ingredient to IF50. The IF50 contains about 10.56 weight % Emulsogen EL™(castor oil ethoxylate, CAS Registry number 61791-12-6), about 42.22 weight % N-methylpyrrolidone, and about 42.22 weight % DPG-Monoethyl ether (dipropylene glycol mono-ethyl ether). The adjuvant X-77 (a mixture of alkyl aryl polyoxyethylene glycols and free fatty acids in isopropanol, CAS Registry number 11097-66-8) is added to the aqueous spray solution to form a 0.2% v/v solution, before spraying onto the plants.
(§2) The test plants are then grown in a glasshouse under controlled conditions in a glasshouse (at 24/18°C. or 20/16°C., day/night; 16 hours light; 65% humidity) and watered twice daily. After 15 days after application of the herbicide (15 DAA) (for post-emergence), and after 20 DAA (for pre-emergence), the test is evaluated visually, and an assessed percentage phytotoxicity score is given for each herbicidal application on each plant/weed species (with 100%=total damage to plant; 0%=no damage to plant). […]

For test [2], the system named is Echinochloa crus galli, barnyardgrass (ECHCG). Described as above. The following applies: 360 h, read-out: ECHCG percentage phytotoxicity. As to the method:
as §1, §2

Test [3] has as its system Avena fatua, wild oats (AVEFA). The test is described as above. The note with it: 360 h, read-out: AVEFA percentage phytotoxicity. As to the method: as §1, §2
Test [4] deals with Alopecurus myosuroides, blackgrass (ALOMY). The description is as above. The note with it: 360 h, read-out: ALOMY percentage phytotoxicity. How it is done: as §1, §2
For test [5], the system named is Lolium perenne (LOLPE). Nature of the test: Biological Example 1 glasshouse screen, post-emergence herbicidal activity. The note with it: 312 h, read-out: LOLPE percentage phytotoxicity. How it is done: (§3) Seeds of a variety of test species were sown in standard soil in pots. After cultivation for one day (pre-emergence) or after 8 days cultivation (post-emergence) under controlled conditions in a glasshouse (at 24/16°C., day/night; 14 hours light; 65% humidity), the plants were sprayed with an aqueous spray solution derived from the formulation of the “technical”(i.e. unformulated) active ingredient in acetone/water (50:50) solution containing 0.5% Tween 20 (polyoxyethylene sorbitan monolaurate, CAS Registry Number 9005-64-5). The test plants were then grown in a glasshouse under controlled conditions in a glasshouse (at 24/16°C., day/night; 14 hours light; 65% humidity) and watered twice daily. After 13 days for pre- or post-emergence, the test was evaluated visually, and an assessed percentage phytotoxicity score given for each herbicidal application on each plant/weed species (with 100%=total damage to plant; 0%=no damage to plant).
(§4) Test plants: Lolium perenne (LOLPE), Alopecurus myosuroides (ALOMY), Echinochloa crus-galli (ECHCG), and Avena fatua (AVEFA). All four of these are grassy monocotyledonous weeds.

Test [6] deals with Avena fatua (AVEFA). The test is described as above. The following applies: 312 h, read-out: AVEFA percentage phytotoxicity. How it is done: as §3, §4
The test system of test [7] is Triticum aestivum, wheat (TRZAW). Nature of the test: Biological Example 3 glasshouse screen, post-emergence, phytotoxicity on wheat. The following applies: 360 h, read-out: TRZAW percentage phytotoxicity. How it is done:
as §1
The test plants are then grown in a glasshouse under controlled conditions in a glasshouse (at 24/18°C. or 20/16°C., day/night; 16 hours light; 65% humidity) and watered twice daily. After 15 days after application of the herbicide (15 DAA) (for post-emergence), and after 20 DAA (for pre-emergence), the test is evaluated visually, and an assessed percentage phytotoxicity score is given for each herbicidal application on each plant/weed species (with 100%=total damage to plant; 0%=no damage to plant).
These give an approximate indication of the level of selectivity on wheat for these tested compounds, when a herbicide safener such as cloquintocet-mexyl is not used: […]

The subject of test [8] is Alopecurus myosuroides (ALOMY). As to the kind of experiment: Biological Example 1 glasshouse screen, pre-emergence herbicidal activity. The following applies: 312 h, read-out: ALOMY percentage phytotoxicity. How it is done: as §3
(§5) Test plants: Alopecurus myosuroides (ALOMY), Setaria faberi (SETFA), Echinochloa crus-galli (ECHCG), Solanum nigrum (SOLNI), Amaranthus retroflexus (AMARE) and Ipomoea hederacea (IPOHE). ALOMY, SETFA and ECHCG are grassy monocotyledonous weeds. SOLNI, AMARE and IPOHE are dicotyledonous (broadleaved) weeds.
as §4

For test [9], the system named is Echinochloa crus-galli (ECHCG). The description is as above. The following applies: 312 h, read-out: ECHCG percentage phytotoxicity. How it is done:
as §3, §5, §4

Test [10] has as its system Alopecurus myosuroides (ALOMY). Nature of the test: Biological Example 2 post-emergence herbicidal activity (comparative data). The following applies: 312 h, read-out: ALOMY percentage phytotoxicity. As to the method:
as §3
(§6) Comparative herbicidal data are given for certain exemplified compounds with 4-(prop-1-ynyl)-2,6-dimethylphenyl or 4-(chloroethynyl)-2,6-dimethylphenyl headgroups, compared to the corresponding comparative compounds with 4-ethynyl-2,6-dimethylphenyl headgroups, as follows.
(§7) Except where specified otherwise, the glasshouse screen for herbicidal activity is substantially the same as that presented in Biological Example 1 hereinabove. The weed abbreviations are as defined in Biological Example 1.

Test [11] deals with Echinochloa crus-galli (ECHCG). The description is as above. The following applies: 312 h, read-out: ECHCG percentage phytotoxicity. As to the method:
as §3, §6, §7

Test [12] concerns Lolium perenne (LOLPE). Described as above. How it is done:
as §3, §6, §7

Test [13] concerns Avena fatua (AVEFA). The test is described as above. How it is done: as §3, §6, §7
Test [14] relates to Lolium perenne (LOLPE). As to the kind of experiment: Biological Example 1 glasshouse screen, pre-emergence herbicidal activity. The note with it: 312 h, read-out: LOLPE percentage phytotoxicity. As to the method: as §3, §4
Test [15] deals with Avena fatua (AVEFA). The test is described as above. The following applies: 312 h, read-out: AVEFA percentage phytotoxicity. As to the method:
as §3, §4

Test [16] deals with Alopecurus myosuroides (ALOMY). Nature of the test: Biological Example 1 glasshouse screen, post-emergence herbicidal activity. The following applies: 312 h, read-out: ALOMY percentage phytotoxicity. As to the method: as §3, §5, §4
Test [17] concerns Echinochloa crus-galli (ECHCG). The description is as above. The note with it: 312 h, read-out: ECHCG percentage phytotoxicity. As to the method: as §3, §5, §4
The mark [18] stands for this setting: application rate 30 g/ha, 15 DAA, no safener.
Setting [19] is: application rate 250 g/ha, evaluated after 13 days.

Read-outs that look alike come from different tables or passages of the source.

For `CC#Cc1cc(C)c(C2=C(O)CC(Cc3ccccn3)C2=O)c(C)c1` (racemic) [Compound A-2, rac-2-(2,6-Dimethyl-4-prop-1-ynylphenyl)-4-(pyridin-2-ylmethyl)cyclopentane-1,3-dione], the pest or weed control at 30 g/ha in test [1] worked out at 90%; in test [2] it was 100%; in [3], 70%; in [4] it was 90%. The pest or weed control at 250 g/ha came out at 100% in the test on Lolium perenne (LOLPE) [5]; 100% in the test with Avena fatua (AVEFA) [6]; 100% in test [8]; 100% in test [9]; 100% in the test on Lolium perenne (LOLPE) [14]; 70% with Avena fatua (AVEFA) [15]. Further, the pest or weed control at 250 g/ha in test [16] and in test [17] was 100% in each case. Moreover, the plant injury at 30 g/ha in test [7] came to 30%. Besides, the values for the pest or weed control at 15.625 g/ha in [10] and in [11] were 90% and 100%, respectively. Moreover, the pest or weed control at 62.5 g/ha in [10] and in test [11] was 100% in each case. Also, the LOLPE percentage phytotoxicity with Lolium perenne (LOLPE) [12] (15.625 g/ha application rate) and in the test with Lolium perenne (LOLPE) [12] (62.5 g/ha application rate) was 100% in each case. The AVEFA percentage phytotoxicity was determined as 80% in the test with Avena fatua (AVEFA) [13] (15.625 g/ha application rate) and 90% in the test on Avena fatua (AVEFA) [13] (62.5 g/ha application rate).

Regarding `CC#Cc1cc(C)c(C2=C(O)CC(CC3CCOCC3)C2=O)c(C)c1` (centres unmarked) [Compound A-4, 2-(2,6-Dimethyl-4-prop-1-ynylphenyl)-4-(tetrahydropyran-4-ylmethyl)cyclopentane-1,3-dione], the pest or weed control at 30 g/ha in test [1] (setting [18]) was found to be 100%; in test [2] (setting [18]), 100%; in test [3] (setting [18]), 80%; in [4] (setting [18]), 100%; in [7] (setting [18]), 80%. Moreover, the pest or weed control at 250 g/ha in the test with Lolium perenne (LOLPE) [5] (setting [19]) was found to be 100%; in the test with Avena fatua (AVEFA) [6] (setting [19]), 100%; in [8] (setting [19]), 100%; in test [9] (setting [19]) it was 100%; in the test on Lolium perenne (LOLPE) [14] (setting [19]), 100%; in the test on Avena fatua (AVEFA) [15] (setting [19]), 70%. The pest or weed control at 250 g/ha in test [16] (setting [19]) was 90%; in [17] (setting [19]), 100%. The pest or weed control at 15.625 g/ha was 70% in [10] (15.625 g/ha application rate) and 100% in test [11] (15.625 g/ha application rate). Further, the values for the pest or weed control at 62.5 g/ha in test [10] (62.5 g/ha application rate) and in test [11] (62.5 g/ha application rate) were 90% and 100%, respectively. Further, the LOLPE percentage phytotoxicity in the test with Lolium perenne (LOLPE) [12] (15.625 g/ha application rate) and in the test with Lolium perenne (LOLPE) [12] (62.5 g/ha application rate) was 100% each time. For the same compound, the AVEFA percentage phytotoxicity in the test with Avena fatua (AVEFA) [13] (15.625 g/ha application rate) and with Avena fatua (AVEFA) [13] (62.5 g/ha application rate) was 100% each time.

With `C#Cc1cc(C)c(C2=C(O)CC(CC3CCOCC3)C2=O)c(C)c1` (centres unmarked) [X-2, reference compound], the values for the pest or weed control at 15.625 g/ha in test [10] (15.625 g/ha application rate) and in test [11] (15.625 g/ha application rate) were 60% and 70%, respectively. Also, the pest or weed control at 62.5 g/ha in [10] (62.5 g/ha application rate) and in test [11] (62.5 g/ha application rate) was 90% in each case. The results for the LOLPE percentage phytotoxicity with Lolium perenne (LOLPE) [12] (15.625 g/ha application rate) and in the test on Lolium perenne (LOLPE) [12] (62.5 g/ha application rate) were 80% and 90%, respectively. The AVEFA percentage phytotoxicity in the test on Avena fatua (AVEFA) [13] (15.625 g/ha application rate) and in the test on Avena fatua (AVEFA) [13] (62.5 g/ha application rate) was 90% in each case.
